# How the values were obtained:
# Test in all cases: Post-emergence application in field trials
# [1] = system: AMARE; assay type: in vivo, Amaranthus retroflexus; conditions: 8 DAT; g ai/ha A-1 25, B-5 1066; growth stage 19; height 10-20 cm; water volume 140 l/ha
# [2] = system: AMATU; assay type: in vivo, Amaranthus tuberculatos; conditions: 8 DAT; g ai/ha A-1 12.5, B-5 1066; growth stage 19; height 10-20 cm; water volume 140 l/ha
# [3] = system: PORPI; assay type: in vivo; conditions: 8 DAT; g ai/ha A-1 25, B-5 1066; height 2-8 cm; water volume 140 l/ha
# [4] = system: ECHCG; assay type: in vivo, Echinochloa crus-galli
# [5] = system: SETVI; assay type: in vivo, Setaria viridis; conditions: 15 DAT; g ai/ha A-1 12.5, B-5 1066, C-10 840; growth stage 13-19; height 2-18 cm; water volume 140 l/ha
# [6] = system: GLXMA; assay type: in vivo, Glycine max; conditions: Example 4; 21 DAT; g ai/ha A-1 12.5, B-5 1066; growth stage 13; height 5-8 cm
# [7] = system: AMAPA
# [8] = system: DIGSA
# [9] = system: CYPES; conditions: 21 DAT, water volume 140 l/ha
# [10] = system: DATST
# [11] = system: ZEAMX; conditions: growth stage 15-16
# [12] = system: SETVE; conditions: growth stage 21-23
# [13] = system: HORVW; conditions: growth stage 23-29, height 20-25 cm
smiles,measurement,setting,value
"CCOC(=O)COc1ccccc1Oc1nc(-n2c(=O)cc(C(F)(F)F)n(C)c2=O)c(F)cc1Cl [A-1, ethyl 2-[2-[[3-chloro-5-fluoro-6-[3-methyl-2,6-dioxo-4-(trifluoromethyl)pyrimidin-1-yl]-2-pyridyl]oxy]phenoxy]acetate]",% Herbicidal activity,[1],88%
same,% Herbicidal activity,[2],88%
same,% Herbicidal activity,[3],90%
same,% Herbicidal activity,"[4]; 13 DAT, g ai/ha A-1 12.5, B-5 1066, C-10 840, growth stage 21-26, height 15-30 cm, water volume 187 l/ha",23%
same,% Herbicidal activity,"[4]; 13 DAT, g ai/ha A-1 25, B-5 1066, C-10 840, growth stage 21-26, height 15-30 cm, water volume 187 l/ha",20%
same,% Herbicidal activity,"[4]; 13 DAT, g ai/ha A-1 50, B-5 1066, C-10 840, growth stage 21-26, height 15-30 cm, water volume 187 l/ha",23%
same,% Herbicidal activity,"[4]; Example 4, 21 DAT, g ai/ha A-1 12.5, B-5 1066, growth stage 23-30, height 15-20 cm",30%
same,% Herbicidal activity,"[4]; Example 6, 7 DAT, g ai/ha A-1 12.5, B-5 1066, C-11 400, growth stage 23-30, height 15-20 cm",20%
same,% Herbicidal activity,"[4]; Example 6, 28 DAT, g ai/ha A-1 12.5, B-5 1066, C-11 400, growth stage 23-30, height 15-20 cm",20%
same,% Herbicidal activity,"[4]; Example 7, 28 DAT, g ai/ha A-1 12.5, B-4 1066, C-11 400, growth stage 23-30, height 15-20 cm",20%
same,% Herbicidal activity,"[4]; Example 8, 7 DAT, g ai/ha A-1 12.5, B-5 1066, C-12 252, growth stage 23-30, height 15-20 cm",20%
same,% Herbicidal activity,"[4]; Example 8, 21 DAT, g ai/ha A-1 12.5, B-5 1066, C-12 252, growth stage 23-30, height 15-20 cm",30%
same,% Herbicidal activity,"[4]; Example 8, 28 DAT, g ai/ha A-1 12.5, B-5 1066, C-12 252, growth stage 23-30, height 15-20 cm",20%
same,% Herbicidal activity,"[4]; Example 9, 28 DAT, g ai/ha A-1 12.5, B-4 1066, C-12 252, growth stage 23-30, height 15-20 cm",20%
same,% Herbicidal activity,"[4]; Example 10, 21 DAT, g ai/ha A-1 12.5, B-5 1066, C-4 12.5, growth stage 23-30, height 15-20 cm",30%
same,% Herbicidal activity,[5],68%
same,% Herbicidal activity,[6],90%
same,% Herbicidal activity,"[7]; 13 DAT, g ai/ha A-1 25, B-5 1066, growth stage 16, height 15-25 cm, water volume 187 l/ha",58%
same,% Herbicidal activity,"[7]; 14 DAT, g ai/ha A-1 12.5, B-5 1066, C-10 840, growth stage 12-24, height 5-30 cm, water volume 140 l/ha",73%
same,% Herbicidal activity,"[7]; 14 DAT, g ai/ha A-1 25, B-5 1066, C-10 840, growth stage 12-24, height 5-30 cm, water volume 140 l/ha",82%
same,% Herbicidal activity,"[7]; 19 DAT, g ai/ha A-1 12.5, B-5 1066, growth stage 16, height 15-25 cm, water volume 187 l/ha",40%
same,% Herbicidal activity,"[7]; 19 DAT, g ai/ha A-1 25, B-5 1066, growth stage 16, height 15-25 cm, water volume 187 l/ha",42%
same,% Herbicidal activity,"[7]; 19 DAT, g ai/ha A-1 50, B-5 1066, growth stage 16, height 15-25 cm, water volume 187 l/ha",52%
same,% Herbicidal activity,"[7]; 21 DAT, g ai/ha A-1 12.5, B-5 1066, growth stage 12-28, height 7-20 cm, water volume 140 l/ha",89%
same,% Herbicidal activity,"[7]; 21 DAT, g ai/ha A-1 50, B-5 1066, height 5-23 cm, water volume 140 l/ha",74%
same,% Herbicidal activity,"[8]; 14 DAT, g ai/ha A-1 12.5, B-5 1066, height 2-8 cm, water volume 140 l/ha",33%
same,% Herbicidal activity,"[8]; 14 DAT, g ai/ha A-1 25, B-5 1066, height 2-8 cm, water volume 140 l/ha",33%
same,% Herbicidal activity,"[8]; 14 DAT, g ai/ha A-1 50, B-5 1066, height 2-8 cm, water volume 140 l/ha",65%
same,% Herbicidal activity,"[8]; 15 DAT, g ai/ha A-1 12.5, B-5 1066, C-10 840, growth stage 13-19, height 2-13 cm, water volume 140 l/ha",68%
same,% Herbicidal activity,"[8]; 21 DAT, g ai/ha A-1 12.5, B-5 1066, C-11 655, height 2-8 cm, water volume 140 l/ha",27%
same,% Herbicidal activity,"[8]; 21 DAT, g ai/ha A-1 12.5, B-5 1066, height 2-8 cm, water volume 140 l/ha",27%
same,% Herbicidal activity,"[8]; 21 DAT, g ai/ha A-1 25, B-5 1066, C-11 655, height 2-8 cm, water volume 140 l/ha",28%
same,% Herbicidal activity,"[8]; 21 DAT, g ai/ha A-1 25, B-5 1066, height 2-8 cm, water volume 140 l/ha",28%
same,% Herbicidal activity,"[8]; 21 DAT, g ai/ha A-1 50, B-5 1066, C-11 655, height 2-8 cm, water volume 140 l/ha",55%
same,% Herbicidal activity,"[8]; 21 DAT, g ai/ha A-1 50, B-5 1066, height 2-8 cm, water volume 140 l/ha",55%
same,% Herbicidal activity,"[8]; Example 6, 7 DAT, g ai/ha A-1 12.5, B-5 1066, C-11 400, growth stage 21-22, height 15-20 cm",35%
same,% Herbicidal activity,"[8]; Example 6, 21 DAT, g ai/ha A-1 12.5, B-5 1066, C-11 400, growth stage 21-22, height 15-20 cm",35%
same,% Herbicidal activity,"[9]; g ai/ha A-1 12.5, B-5 1066, C-11 655",20%
same,% Herbicidal activity,"[9]; g ai/ha A-1 50, B-5 1066, C-11 655",42%
same,% Herbicidal activity,"[9]; g ai/ha A-1 50, B-5 1066",42%
same,% Herbicidal activity,"[10]; Example 4, 7 DAT, g ai/ha A-1 12.5, B-5 1066",90%
same,% Herbicidal activity,"[10]; Example 6, 21 DAT, g ai/ha A-1 12.5, B-5 1066, C-11 400",90%
same,% Herbicidal activity,"[11]; Example 4, 7 DAT, g ai/ha A-1 18, B-5 1066, height 50-60 cm",85%
same,% Herbicidal activity,"[11]; Example 4, 21 DAT, g ai/ha A-1 12.5, B-5 1066, height 50-60 cm",80%
same,% Herbicidal activity,"[11]; Example 5, 21 DAT, g ai/ha A-1 12.5, B-4 1066, height 50-60 cm",70%
same,% Herbicidal activity,"[11]; Example 6, 7 DAT, g ai/ha A-1 12.5, B-5 1066, C-11 400, height 25-30 cm",40%
same,% Herbicidal activity,"[11]; Example 6, 28 DAT, g ai/ha A-1 12.5, B-5 1066, C-11 400, height 50-60 cm",85%
same,% Herbicidal activity,"[11]; Example 7, 28 DAT, g ai/ha A-1 12.5, B-4 1066, C-11 400, height 50-60 cm",50%
same,% Herbicidal activity,"[11]; Example 8, 28 DAT, g ai/ha A-1 12.5, B-5 1066, C-12 252, height 50-60 cm",85%
same,% Herbicidal activity,"[11]; Example 9, 28 DAT, g ai/ha A-1 12.5, B-4 1066, C-12 252, height 50-60 cm",50%
same,% Herbicidal activity,"[11]; Example 11, 21 DAT, g ai/ha A-1 12.5, B-4 1066, C-4 12.5, height 50-60 cm",70%
same,% Herbicidal activity,"[12]; Example 4, 21 DAT, g ai/ha A-1 12.5, B-5 1066, height 8-16 cm",65%
same,% Herbicidal activity,"[12]; Example 6, 7 DAT, g ai/ha A-1 12.5, B-5 1066, C-11 400, height 10-15 cm",75%
same,% Herbicidal activity,"[12]; Example 6, 21 DAT, g ai/ha A-1 12.5, B-5 1066, C-11 400, height 10-15 cm",55%
same,% Herbicidal activity,"[13]; Example 4, 21 DAT, g ai/ha A-1 12.5, B-5 1066",60%
same,% Herbicidal activity,"[13]; Example 5, 7 DAT, g ai/ha A-1 12.5, B-4 1066",60%
same,% Herbicidal activity,"[13]; Example 6, 28 DAT, g ai/ha A-1 12.5, B-5 1066, C-11 400",60%
same,% Herbicidal activity,"[13]; Example 7, 28 DAT, g ai/ha A-1 12.5, B-4 1066, C-11 400",90%
same,% Herbicidal activity,"[13]; Example 8, 21 DAT, g ai/ha A-1 12.5, B-5 1066, C-12 252",80%
same,% Herbicidal activity,"[13]; Example 9, 21 DAT, g ai/ha A-1 12.5, B-4 1066, C-12 252",80%
same,% Herbicidal activity,"[13]; Example 10, 21 DAT, g ai/ha A-1 12.5, B-5 1066, C-4 12.5",80%
same,% Herbicidal activity,"[13]; Example 11, 21 DAT, g ai/ha A-1 12.5, B-4 1066, C-4 12.5",80%

# Reference: US12708116B2, “Herbicidal compositions comprising 2,4-D” (BASF SE, priority 2023, dated 2026)
